Results from the supplement of paper PMC10307832.

Key:
Experiment in all cases: relative viability (nuclei count vs DMSO), 5 days (fraction); higher = more cells survive
[1] = compound: CN[C@@H]1C[C@H]2O[C@@](C)([C@@H]1OC)n1c3ccccc3c3c4c(c5c6ccccc6n2c5c31)C(=O)NC4 [Staurosporine]
Method in brief: (§1)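 Lung cancer cell lines in 1536-well plates were exposed by pinning to five library-drug doses (not always all listed) √10 apart, following an overnight hold at 37 °C. MetaXpress counted Hoechst-stained nuclei from 4× images taken after 5 days without medium change. Viability is the median ratio of treated-well to vehicle-well nuclei across plates. Plates required control CV below 25% and at least one doubling.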

[2] = compound: O=c1[nH]cc(F)c(=O)[nH]1 [5-Fluorouracil]
Method in brief: as §1

[3] = compound: CC1=C(CC(=O)O)c2cc(F)ccc2/C1=C\c1ccc([S+](C)[O-])cc1 [Sulindac]
Method in brief: as §1

UMC-11 was tested, and the relative viability ([1]; 0.005 µM) was 0.977, the relative viability ([1]; 0.01581 µM) was 0.328 and the relative viability ([1]; 0.05 µM) was 0.295. It also gave a relative viability ([1]; 0.1581 µM) of 0.123, a relative viability ([1]; 0.5 µM) of 0.0871 and a relative viability ([2]; 0.02 µM) of 0.952. It also gave a relative viability ([2]; 0.2 µM) of 0.783, a relative viability ([2]; 0.6325 µM) of 0.519 and a relative viability ([3]; 0.08 µM) of 1.14. For the same cell line, the relative viability ([3]; 0.253 µM) was 1.01, the relative viability ([3]; 0.8 µM) was 0.824 and the relative viability ([3]; 2.53 µM) was 0.869. The relative viability ([3]; 8 µM) was 1.11.
